Like-named read-outs stand apart in the source and are kept apart here.
Legend:
[1] = rat, in vivo; for Death Numbers / Death Rate: SD, 14 days
[2] = Metabolic stability in liver microsomes, rat; assay type: in vitro ADME
Experimental: (§1) Microsomes were taken out from the −80° C. refrigerator, rapidly melted in a 37° C. water bath and placed on ice until ready to use. The test article was diluted with DMSO to prepare a 10 mM stock solution, and then diluted with acetonitrile to a 0.5 mM secondary stock solution. […] NADPH was diluted with Buffer C to a working solution of 6 mM for the starter solution. An acetonitrile solution containing an internal standard was prepared as the precipitant, and Verapamil-HCl was chosen as the internal standard at a concentration of 4 ng/ml. […] A separate plate with pointed bottom wells, noted as a precipitation plate, was added with 135 μL precipitant per well; 0 h samples were transferred to the plate after 10 min incubation and 15 μL of starter solution was added; the plate was placed on ice before centrifugation. The diluted starter solution was added in sufficient quantity to the dispensing plate to facilitate the multichannel pipette aspiration operation. The reaction was carried out on a warm incubation shaker and 15 μL of starter solution/sample is added to the plate using a multichannel pipette. The reaction was mixed with a slight shake to initiate the reaction, which was accurately timed and recorded using a timer; After the reaction time had elapsed, all the solution in the plate was aspirated using the multichannel pipette and added to the precipitation plate to terminate the reaction at that point in time. After all reactions had been terminated, the plates were shaken for ten minutes on a plate shaker at 600 rpm to precipitate the protein. The plate was centrifuged at 4° C. for 15 minutes at maximum rpm. 80 μL of supernatant was taken, 320 μL of pure water was added and mixed for LC-MS analysis.

[3] = Metabolic stability in liver microsomes, monkey; assay type: in vitro ADME
Experimental: as §1

[4] = Pharmacokinetics on single dose in mice (iv and po); assay type: in vivo, male ICR mice
Description: The present experiment aimed to study the pharmacokinetics in the plasma of male ICR mice after the administration. The present experiment aimed to obtain the pharmacokinetic profile of the subject compounds in ICR mice (both intravenous and oral) [table] • Species: SPF grade male ICR mice • Body weight/weekly age: about 30 g • Amount: 6 • Experimental animal source: Charles River • Intravenous solvents: 5% DMSO—10% Solutol-85% HPBCD (20%, WN) • “Gavage solvent/dosage form: 5% DMSO—10% Solutol-85% HPBCD (20%, WN)” • Intravenous: 1 mg/kg in a volume of 5 mL/kg • Gavage: 10 mg/kg in a volume of 10 mL/kg • Ultrasound for 5 min before administration • Intravenous: 0.2 mg/mL • Gavage: 1 mg/mL • Fast overnight before administration and feed four hours after administration. […] The blood samples were stored in a refrigerator at or below −20 C for LC-MS/MS analysis. The samples were detected for drug concentration at each time point by LC-MS/MS. Pharmacokinetic parameters terminal elimination half-life (t½), area under the curve (AUC), apparent volume of distribution (Vd), clearance (CL), mean residence time (MRT), and Cmax were calculated using the non-compailinental model of Phoenix WinNonlin 5.2. Bioavailability (F %) was directly from serum concentration results. Mean standard deviation (X±SD) was used for blood concentration and pharmacokinetic parameters, etc. Specific testing and analytical methods were specified in the form of protocol revisions.

[5] = Metabolic stability in liver microsomes, human; assay type: in vitro ADME
Experimental: as §1, with “Test Example 3: Evaluation of the Metabolic Stability of Liver Microsomes (Mouse and Human) In Vitro Microsomes” for “Microsomes”

[6] = Pharmacokinetics on single dose in Beagle dogs (iv and po); assay type: in vivo, male Beagle dogs
Experimental: Pharmacokinetic properties of the drug in male Beagle dogs were evaluated by the same method with in vivo pharmacokinetic study with mice. The basic information is as follows: • Beagle: weighing 8-11 kg, purchased from Jiangsu Marshall Biotechnology Co., Ltd. • Dosage: 2 mg/kg (intravenous injection); 10 mg/kg (oral) • Solvent: 5% DMSO+5% Solutol+90% (20% HP-β-CD in Saline)

[7] = Pharmacokinetics on single dose in rats (iv and po); assay type: in vivo, male SD rats
Experimental: Pharmacokinetic properties of the drug in male SD rats were evaluated by the same method with in vivo pharmacokinetic study with mice.

[8] = male, mouse, plasma, ICR mice, iv 1 mg/kg
[9] = male, mouse, plasma, ICR mice, po 10 mg/kg
[10] = male, rat, plasma, SD rats, iv 1 mg/kg
[11] = male, rat, plasma, SD rats, po 10 mg/kg

For C=CCn1c(=O)c2cnc(Nc3ccc(N4CCN(C)CC4)cc3)nc2n1-c1cccc(C(C)(C)O)n1 [AZD1775, reference compound], the “Death Numbers” value ([1]; female, 100 mg/kg) was 0, the “Death Rate” value ([1]; female, 100 mg/kg) was 0% and the “Death Numbers” value ([1]; female, 200 mg/kg) was 0. For the same molecule, the “Death Rate” value ([1]; female, 200 mg/kg) was 0%, the “Death Numbers” value ([1]; female, 300 mg/kg) was 2 and the “Death Rate” value ([1]; female, 300 mg/kg) was 67%. The “Death Numbers” value ([1]; male, 100 mg/kg) was 0, the “Death Rate” value ([1]; male, 100 mg/kg) was 0% and the “Death Numbers” value ([1]; male, 200 mg/kg) was 0. The “Death Rate” value ([1]; male, 200 mg/kg) was 0%, the “Death Numbers” value ([1]; male, 300 mg/kg) was 0 and the “Death Rate” value ([1]; male, 300 mg/kg) was 0%. It also gave a half-life at 1 µM ([2]; read-out: T1/2 liver microsomes Rat) of 0.635 h, a half-life at 1 µM ([3]; read-out: T1/2 liver microsomes Monkey) of 0.335 h and a Cl ([4]; ICR mice, po 10 mg/kg) of 446 mL/min/kg. It also gave an F ([4]; ICR mice, po 10 mg/kg) of 32%, an AUC(0-t) [4, 8] of 116 ng·h/mL and a clearance [4, 8] of 134 mL/min/kg. It also gave a half-life [4, 8] of 0.5 h, a C0 ([4]; male, mouse, plasma, ICR mice, iv 1 mg/kg, read-out: C0) of 250 ng/mL and an AUC(0-t) [4, 9] of 396 ng·h/mL. It also gave a half-life [4, 9] of 0.87 h, a Cmax ([4]; male, mouse, plasma, ICR mice, po 10 mg/kg, read-out: Cmax) of 398 ng/mL and a Tmax ([4]; male, mouse, plasma, ICR mice, po 10 mg/kg, read-out: Tmax) of 0.42 h. It also gave a half-life at 1 µM ([5]; read-out: T1/2 liver microsomes Human) of 0.635 h, a Vss ([6]; iv 2 mg/kg) of 3.01 L/kg and an AUC(0-t) ([6]; male, dog, plasma, iv 2 mg/kg) of 877 ng·h/mL. It also gave a clearance ([6]; male, dog, plasma, iv 2 mg/kg) of 44 mL/min/kg, a half-life ([6]; male, dog, plasma, iv 2 mg/kg) of 1.03 h and an AUC(0-t) ([6]; male, dog, plasma, po 10 mg/kg) of 1620 ng·h/mL. The half-life ([6]; male, dog, plasma, po 10 mg/kg) was 2.34 h, the Cmax ([6]; male, dog, plasma, po 10 mg/kg, read-out: Cmax) was 405 ng/mL and the Tmax ([6]; male, dog, plasma, po 10 mg/kg, read-out: Tmax) was 1.67 h. It also gave an F ([6]; po 10 mg/kg) of 37.9%, a Cl ([7]; SD rats, po 10 mg/kg) of 170.8 mL/min/kg and an F ([7]; SD rats, po 10 mg/kg) of 121.8%. For the same molecule, the AUC(0-t) [7, 10] was 72.3 ng·h/mL, the clearance [7, 10] was 148 mL/min/kg and the half-life [7, 10] was 0.91 h. For the same molecule, the C0 ([7]; male, rat, plasma, SD rats, iv 1 mg/kg, read-out: C0) was 101 ng/mL, the AUC(0-t) [7, 11] was 881 ng·h/mL and the half-life [7, 11] was 2.68 h. For the same molecule, the Cmax ([7]; male, rat, plasma, SD rats, po 10 mg/kg, read-out: Cmax) was 188 ng/mL.

For [2H][C@]1(O)c2nc(-n3c4nc(Nc5ccc(N6CCC7(CCN(C)CC7)CC6)cc5)ncc4c(=O)n3CC=C)ccc2CCC12CC2 [Compound 37b], the “Maximum tolerated dose (in words)” value [1] was “higher than that of the control compound AZD1775”, the “T1/2 liver microsomes Rat” value [2] was over 2 h and the “T1/2 liver microsomes Monkey” value [3] was 0.633 h. For the same molecule, the AUClast ([4]; ICR mice, iv 1 mg/kg) was 558 ng·h/mL, the C0 ([4]; ICR mice, iv 1 mg/kg) was 186 ng/mL and the Cl ([4]; ICR mice, iv 1 mg/kg) was 26.3 mL/min/kg. The T1/2 ([4]; ICR mice, iv 1 mg/kg) was 2.99 h, the AUClast ([4]; ICR mice, po 10 mg/kg) was 1607 ng·h/mL and the Cl ([4]; ICR mice, po 10 mg/kg) was 74 mL/min/kg. The Cmax ([4]; ICR mice, po 10 mg/kg) was 307 ng/mL, the F ([4]; ICR mice, po 10 mg/kg) was 29% and the Tmax ([4]; ICR mice, po 10 mg/kg) was 2.67 h. For the same molecule, the “Pharmacokinetic properties (in words)” value ([4]; mice, compared with AZD1775) was “better pharmacokinetic properties than the control compound AZD1775”, the “T1/2 liver microsomes Human” value [5] was over 2 h and the AUClast ([6]; iv 2 mg/kg) was 1602 ng·h/mL. For the same molecule, the Cl ([6]; iv 2 mg/kg) was 21.8 mL/min/kg, the T1/2 ([6]; iv 2 mg/kg) was 5.05 h and the Vss ([6]; iv 2 mg/kg) was 5.71 L/kg. The AUClast ([6]; po 10 mg/kg) was 1816 ng·h/mL, the Cmax ([6]; po 10 mg/kg) was 171 ng/mL and the F ([6]; po 10 mg/kg) was 22.8%. For the same molecule, the T1/2 ([6]; po 10 mg/kg) was 4.69 h, the Tmax ([6]; po 10 mg/kg) was 2.00 h and the AUClast ([7]; SD rats, iv 1 mg/kg) was 471 ng·h/mL. For the same molecule, the C0 ([7]; SD rats, iv 1 mg/kg) was 313.2 ng/mL, the T1/2 ([7]; SD rats, iv 1 mg/kg) was 3.97 h and the AUClast ([7]; SD rats, po 10 mg/kg) was 1131 ng·h/mL. For the same molecule, the Cmax ([7]; SD rats, po 10 mg/kg) was 188.6 ng/mL, the F ([7]; SD rats, po 10 mg/kg) was 24.01% and the Tmax ([7]; SD rats, po 10 mg/kg) was 2.67 h. The “Drug exposure (in words)” value ([7]; rats, compared with AZD1775) was “obvious advantages in drug exposure”.
